Experimental data reported in patent US8729031B2, “Compounds” (priority 2009, dated 2014).
In brackets after ≈: the same amount, converted by molar mass.

Columns and labels:
E. faecium = assay: MIC susceptibility testing, vancomycin resistant Enterococci (E. faecium); type: cell-based
Protocol: (§1) Susceptibility testing with the exception of Streptococcus pneumoniae was performed by two-fold serial dilutions in Mueller Hinton Broth supplemented with 50 μg/mL Ca^2+. Susceptibility testing of S. pneumoniae was performed by two-fold serial dilutions in Brain-Heart-Infusion Broth supplemented with 50 μg/mL Ca^2+.

E. faecalis = assay: MIC susceptibility testing, vancomycin resistant Enterococci (E. faecalis); type: cell-based; conditions: E. faecalis 9758512, vancomycin resistant
Protocol: as §1

Streptococcus pneumoniae = assay: microbe, parasite or virus in culture; type: cell-based
Protocol: as §1

[1] = test system: Staphylococcus aureus methicillin resistant ATCC 33591; assay: Mouse bacteraemia model; type: in vivo
Protocol: Groups of 6 male CD-1 (Crl.) derived mice weighing 24±2 g were used. Mice were inoculated intraperitoneally (IP) with an LD90-100 of Staphylococcus aureus methicillin resistant ATCC 33591 (1.1×10^7CFU/mouse) in 0.5 mL of BHI broth containing 5% mucin. The compound of example 1a and vancomycin were dissolved in 15% HPbetaCD/4.4% glucose/0.5 mM KH2PO4, pH 5.0 at doses of 1, 3, 5, 10 and 20 mg/Kg and were administered subcutaneously (SC) to test animals at 0, 2 and 24 hour(s) after bacteria challenge. The dosing volume was 5 mL/Kg. Mortality was recorded once daily for 7 days. The ED50 for each compound was determined by nonlinear regression.

[2] = test system: Methicillin Resistant Staphylococcus aureus (MRSA, ATCC 33591); assay: Neutropaenic mouse thigh infection model; type: in vivo; conditions: for antimicrobial effect in thigh infection: IV at 5, 10, 20, 30 and 40 mg/Kg×2
Protocol: In vivo efficacy of compounds of the present invention in the treatment of bacterial tissue infections was evaluated using a neutropaenic mouse thigh model. Groups of 6 male ICR mice weighing 24±2 g were used. Test animals were immunosuppressed by 2 intraperitoneal injections of cyclophosphamide, the first at 150 mg/Kg 4 days before infection (day-4) and the second at 100 mg/Kg 1 day before infection (day-1). On day 0, individual animals were inoculated intramuscularly (IM) into the right thigh of test animals with 1.15×10^5 CFU/mouse of Methicillin Resistant Staphylococcus aureus (MRSA, ATCC 33591) suspended in 100 μL of sterile PBS, pH 7.4. Vehicle and test substances were administered intravenously (IV) at a dose volume of 8 mL/Kg, 2 and 14 hours after thigh infection. Example 1a (Compound I) and vancomycin were dissolved in 15% hydroxypropyl-β-cyclodextrin/4.4% glucose/1 mM potassium phosphate buffer, pH 7.0 and administered at doses of 5, 10, 20, 30 and 40 mg/Kg. At 26 hours after inoculation, muscle of the right thigh of each test mouse was harvested. From an additional group with no treatment, muscle of the right thigh was harvested at 2 hours after inoculation for the basal CFU determination. The removed muscle tissues were then homogenized in 3-4 mL of PBS, pH 7.4 with a ceramic mortar. Homogenates of 0.1 mL were used for serial 10-fold dilutions and plated on Mueller Hinton broth in 1.5% Bacto agar for CFU determination.

[3] = In vivo plasma half-life in mice; conditions: mouse, 29.76 mg/kg, male CD-1 mice, IV, 9.3 mL/Kg of 3.2 mg/mL solution
Protocol: The in vivo half-life of Example 1a in mice was determined by measurement of its plasma concentrations at various time points following IV dosing. 18 male CD-1 mice aged 7-9 weeks were dosed IV with a 9.3 mL/Kg dose of a 3.2 mg/mL solution of Example 1a in 15% hydroxyl-propyl-β-cyclodextrin/4.4% glucose/1 mM potassium phosphate (pH=7.6). Plasma samples were obtained at 10, 20, 30, 60, 120 and 240 min post-dose, sampling from 3 animals at each time point. Concentrations of Example 1a in plasma were determined by LC-MS quantification.

Structure (SMILES): CC[C@H](C)[C@@H]1NC(=O)[C@@H]2NC(=O)[C@H](CC(C)C)NC(=O)[C@H](NC(=O)[C@@H]3CSC[C@@H](N)C(=O)N[C@@H](CO)C(=O)NCC(=O)N[C@@H](Cc4c[nH]c5ccccc45)C(=O)N[C@@H](C(C)C)C(=O)N3)[C@H](C)SC[C@H](NC(=O)[C@H](CCC(=O)O)NC1=O)C(=O)NCC(=O)N[C@H]1C(=O)N[C@@H](CC(C)C)C(=O)N[C@@H](C(C)C)C(=O)N[C@@H](CS[C@H]2C)C(=O)N[C@@H](C)C(=O)N[C@H](C(=O)NCc2cc(Cl)cc(Cl)c2)CS[C@H]1C [Example 1, Deoxyactagardine B (3,5-dichlorobenzylamine)monocarboxamide]
- MIC (E. faecium; E. faecium 7662769, vancomycin resistant): 8 µg/mL (≈ 3.94 µM)
- MIC (E. faecium; E. faecium 7860190, vancomycin resistant): 4 to 8 µg/mL
- MIC (E. faecium; E. faecium 9710577, vancomycin resistant): 8 µg/mL (≈ 3.94 µM)
- MIC (E. faecalis): 8 µg/mL (≈ 3.94 µM)
- MIC (Streptococcus pneumoniae; isolate QB37301, penicillin Resistant): 2 µg/mL (≈ 0.984 µM)
- MIC (Streptococcus pneumoniae; isolate QB37302, penicillin Resistant): 1 µg/mL (≈ 0.492 µM)
- MIC (Streptococcus pneumoniae; isolate QB37303, penicillin Intermediate): 0.25 µg/mL (≈ 0.123 µM)
- MIC (Streptococcus pneumoniae; isolate QB37304, penicillin Susceptible): 0.25 µg/mL (≈ 0.123 µM)
- MIC (Streptococcus pneumoniae; isolate QB37305, penicillin Susceptible): 1 µg/mL (≈ 0.492 µM)
- MIC (Streptococcus pneumoniae; isolate QB37306, penicillin Susceptible): 0.25 to 0.5 µg/mL
- MIC (Streptococcus pneumoniae; isolate QB37307, penicillin Intermediate): 0.5 to 1 µg/mL
- MIC (Streptococcus pneumoniae; isolate QB37308, penicillin Susceptible): 0.25 to 0.5 µg/mL
- MIC (Streptococcus pneumoniae; isolate QB37309, penicillin Resistant): 2 µg/mL (≈ 0.984 µM)
- MIC (Streptococcus pneumoniae; isolate QB37310, penicillin Resistant): 0.25 µg/mL (≈ 0.123 µM)
- MIC (Streptococcus pneumoniae; isolate QB37311, penicillin Resistant): 0.03 µg/mL (≈ 0.0148 µM)
- MIC (Streptococcus pneumoniae; isolate QB37312, penicillin Intermediate): 0.5 µg/mL (≈ 0.246 µM)
- MIC (Streptococcus pneumoniae; isolate QB37313, penicillin Susceptible): 0.03 µg/mL (≈ 0.0148 µM)
- MIC (Streptococcus pneumoniae; isolate QB37314, penicillin Resistant): 1 µg/mL (≈ 0.492 µM)
- MIC (Streptococcus pneumoniae; isolate QB37315, penicillin Susceptible): 0.25 µg/mL (≈ 0.123 µM)
- MIC (Streptococcus pneumoniae; isolate QB37316, penicillin Susceptible): 2 µg/mL (≈ 0.984 µM)
- MIC (Streptococcus pneumoniae; isolate QB37317, penicillin Susceptible): 0.25 µg/mL (≈ 0.123 µM)
- MIC (Streptococcus pneumoniae; isolate QB37318, penicillin Resistant): 0.25 µg/mL (≈ 0.123 µM)
- MIC (Streptococcus pneumoniae; isolate QB37319, penicillin Resistant): 1 µg/mL (≈ 0.492 µM)
- MIC (Streptococcus pneumoniae; isolate QB37320, penicillin Intermediate): 1 µg/mL (≈ 0.492 µM)

Structure (SMILES): CC[C@H](C)[C@@H]1NC(=O)[C@@H]2NC(=O)[C@H](CC(C)C)NC(=O)[C@H](NC(=O)[C@@H]3CSC[C@@H](N)C(=O)N[C@@H](CO)C(=O)NCC(=O)N[C@@H](Cc4c[nH]c5ccccc45)C(=O)N[C@@H](C(C)C)C(=O)N3)[C@H](C)SC[C@H](NC(=O)[C@H](CCC(=O)O)NC1=O)C(=O)NCC(=O)N[C@H]1C(=O)N[C@@H](CC(C)C)C(=O)N[C@@H](C(C)C)C(=O)N[C@@H](CS[C@H]2C)C(=O)N[C@@H](C)C(=O)N[C@H](C(=O)NCc2cc(Cl)cc(Cl)c2)CS[C@H]1C [Example 1a]
- survival rate ([1]; 3 mg/Kg, SC): 100%
- antimicrobial effect against S. aureus (MR) in mice ([1]; 3, 5, 10 and 20 mg/Kg×3, SC): significant antimicrobial effect
- increase in survival rate ([1]; 3, 5, 10 and 20 mg/Kg×3, SC): at least 50%
- estimated ED50 ([1]; SC at 0, 2 and 24 h after challenge, mortality over 7 days, nonlinear regression): 1.07 mg/kg
- antimicrobial effect in thigh infection [2]: significant antimicrobial effect
- reduction in CFU/g ([2]; IV ×2 (2 and 14 h), 10 mg/kg and above, thigh muscle at 26 h): > 1000 fold
- half-life [3]: ~2 h

Structure (SMILES): CN[C@H](CC(C)C)C(=O)N[C@H]1C(=O)N[C@@H](CC(N)=O)C(=O)N[C@H]2C(=O)N[C@H]3C(=O)N[C@H](C(=O)N[C@H](C(=O)O)c4cc(O)cc(O)c4-c4cc3ccc4O)[C@H](O)c3ccc(c(Cl)c3)Oc3cc2cc(c3O[C@@H]2O[C@H](CO)[C@@H](O)[C@H](O)[C@H]2O[C@H]2C[C@](C)(N)[C@H](O)[C@H](C)O2)Oc2ccc(cc2Cl)[C@H]1O [vancomycin, reference compound]
- antimicrobial effect against S. aureus (MR) in mice ([1]; 3, 5, 10 and 20 mg/Kg×3, SC): significant antimicrobial effect
- ED50 ([1]; Staphylococcus aureus, ATCC33591, SC at 0, 2 and 24 h after challenge, mortality over 7 days, nonlinear regression, read-out: estimated ED50): 3 mg/kg
- antimicrobial effect in thigh infection [2]: significant antimicrobial effect
- reductions of CFU/g ([2]; IV ×2 (2 and 14 h), 30 mg/kg and above, thigh muscle at 26 h): > 100 fold
